{"source": "paper PMC11992225", "about": "“Antibacterial compounds against non-growing and intracellular bacteria” (npj Antimicrobials and Resistance, 2025)", "tested_on": "non-growing UPEC CFT073", "test": "Time-dependent effects of drug treatment on regrowth, UPEC", "format": "cell-based, Escherichia coli", "settings": "E. coli, 10 µM, OD600 6 h after dilution", "description": "For screening and concentration-dependent characterization of the hit compounds, we used a 24-h incubation to capture their effects, although the actual onset of their activity may occur much sooner. To assess the speed of action, we treated stationary-phase cultures of three organisms with compounds that had previously shown a strong regrowth delay at 10 µM. We selected compounds that, in earlier tests, strongly delayed regrowth, such that diluted cultures remained below an OD600 of 0.12 (indicating no growth) after 6 h for UPEC or 8 h for P. aeruginosa and S. aureus in drug-free medium.\nWe collected samples at different times during the 24-h incubation, diluted them 2500-fold, and measured the OD600 after 6 or 8 h of further incubation, respectively. […] Rifampicin acts quickly against non-growing S. aureus, while the effects of the other compounds increase gradually during incubation but are already apparent within the first hour of treatment.\nBacteria were cultivated in 1:4 diluted CA-MHB (40 mM HEPES, pH 7.4) for 24 h. Aliquots were dispensed into a 96-well plate, and compounds were added at a 10 µM concentration. […] The OD600 of the samples was measured to assess regrowth using a microplate reader (BioTek Synergy H1) after 6 h for UPEC and 8 h for P. aeruginosa and S. aureus. […]", "data": [{"molecule": "C[C@H]1NCc2cc(-c3ccc4c(=O)c(C(=O)O)cn(C5CC5)c4c3OC(F)F)ccc21", "note": "[Garenoxacin]", "values": [{"measurement": "speed of action: regrowth delay over treatment time", "value": "act more slowly"}]}]}
